Assays:
Experiment in all cases: CTG-3D luminescence at 96 h relative to day-0 seeding control (ratio to day 0); higher = more growth / less cytotoxicity; PDxO 3D drug screen (set 2), 96 h, CTG-3D normalised to day-0 seeding control.
[1] = system: HCI-001 (organoid from a triple-negative breast cancer xenograft)
[2] = system: HCI-027 (organoid from a triple-negative breast cancer xenograft)
[3] = system: HCI-023 (organoid from a triple-negative breast cancer xenograft)
[4] = system: HCI-015 (organoid from a triple-negative breast cancer xenograft)
[5] = system: HCI-002 (organoid from a triple-negative breast cancer xenograft)

CS(=O)(=O)CCNCc1ccc(-c2ccc3ncnc(Nc4ccc(OCc5cccc(F)c5)c(Cl)c4)c3c2)o1 [lapatinib]
CTG-3D luminescence at 96 h
Settings	12.5 pM	0.00025 µM	0.005 µM	0.1 µM	1 µM	10 µM	100 µM	625 fM
[1], days in culture: 365	2.34	2.26	2.24	2.56	1.9	1.3	0.109	1.46
[1], days in culture: 397	1.64	2.11	2.14	1.37	1.64	1.63	0.127	1.29
[1], days in culture: 401	1.46	1.83	1.73	1.59	1.25	1.44	0.0402	1.52
[2], days in culture: 145	1.6	2.25	1.81	1.29	0.739	0.0785	0.00359	2.05
[2], days in culture: 158	1.68	2.65	3.39	2.02	2.72	0.902	0.00689	5.17
[2], days in culture: 164	2.91	1.7	1.91	1.36	1.57	0.126	0.00219	1.64
[2], days in culture: 176	4.02	2.45	1.33	2.41	1.57	0.0427	0.00427	1.78
[2], days in culture: 186	1.46	2.11	2.88	2.74	0.49	0.0763	0.00176	2.77
[3], days in culture: 223	1.82	2.13	1.85	2.09	1.46	0.716	0.00541	1.72
[3], days in culture: 238	1.38	1.57	1.41	1.6	1.91	0.911	0.00517	1.57
[3], days in culture: 252	2.21	2.11	1.77	1.94	1.86	1.14	0.00206	1.9
[4], days in culture: 333	1.35	1.46	1.34	1.08	0.661	0.251	0.00814	2.63
[4], days in culture: 355	3.61	3.24	1.08	1.64	1.45	0.567	0.0071	2.45
[4], days in culture: 369	2.34	1.5	2.2	1.6	2.32	0.511	0.0242	1.79
[5], days in culture: 127	2.38	2.9	2.7	3.41	2.39	1.07	0.00596	2.75
[5], days in culture: 155	5.69	4.91	5.49	7.04	4.12	0.801	-0.00284	4.59
[5], days in culture: 168	3.63	3.77	3.93	3.54	3.53	1.01	-0.0013	3.8

CCOc1ccn(-c2ccc(F)cc2)c(=O)c1C(=O)Nc1ccc(Oc2ccnc(N)c2Cl)c(F)c1 [ASLAN002]
CTG-3D luminescence at 96 h
Settings	12.5 pM	0.00025 µM	0.005 µM	0.1 µM	1 µM	10 µM	100 µM	625 fM
[1], days in culture: 365	2.86	2.78	2.5	3.1	2.44	1.84	1.6	1.69
[1], days in culture: 397	1.79	2.1	2.38	1.93	2.27	2.43	1.01	1.87
[1], days in culture: 401	1.59	1.66	1.76	1.83	1.66	1.29	0.84	1.76
[2], days in culture: 145	1.36	2.38	1.99	2.27	1.53	1.16	0.692	1.71
[2], days in culture: 158	2.07	1.82	2.16	2.7	1.65	2.11	1.35	4.78
[2], days in culture: 164	1.59	1.98	3.29	1.48	1.84	1.29	0.787	1.91
[2], days in culture: 176	3.7	2.85	1.77	1.65	2.11	1.09	0.699	2.39
[2], days in culture: 186	2	1.38	1.53	2.45	0.755	0.892	0.737	2
[3], days in culture: 223	1.5	2.83	1.7	2.8	1.5	1.49	1.03	1.61
[3], days in culture: 238	1.66	1.62	1.17	1.42	1.76	1.05	0.917	1.58
[3], days in culture: 252	1.99	1.93	1.78	2.01	2.08	1.47	1.15	2.04
[4], days in culture: 333	1.68	1.64	0.866	1.08	0.841	0.711	0.501	1.57
[4], days in culture: 355	1.87	3.41	1.5	1.76	1.71	2.18	0.883	2.05
[4], days in culture: 369	2.27	1.62	2.12	1.97	2.23	1.38	1.18	1.94
[5], days in culture: 127	2.57	3.09	2.93	3.28	2.8	2.96	1.67	2.9
[5], days in culture: 155	4.58	5.63	6.16	6.6	5.32	3.84	1.94	4.85
[5], days in culture: 168	3.23	3.24	4.54	3.38	4.12	2.92	0.58	3.92

Reference: the supplement of paper PMC8882468
